Laboratory results taken from patent US7070960B2, “Method of increasing product expression through solute stress” (Chiron Corporation, priority 1987, dated 2006).

Tests used:
D-234 = experiment: Effect of Na lactate on D-234 growth and IgM production; type: cell-based, human/human/murine trioma
Method: Approximately 1×10^5 cells/ml of D-234 were grown in 250 ml shake flasks (agitated at 100 rpm) in HL-1 medium containing 0.1% Pluronic polyol F-68 and 8 mM glutamine. A 1 M stock solution of sodium lactate (pH 7.4) in HL-1 was added to the medium. A preliminary screen of the effect of a broad range of sodium lactate concentrations (0–100 mM) on D-234 growth and IgM production was run. […] Cell densities at day four were reduced at all levels of lactate tested with a critical drop between 40 and 60 mM.

hybridoma D-234 = experiment: Effect of NH4Cl on D-234 growth and IgM production; type: cell-based, human/human/murine trioma; conditions: 10 mM NH4Cl
Method: The hybridoma D-234 was grown in HL-1 serum-free medium supplemented with 0.1% Pluronic polyol F-68, 10 mM glutamine and 10 mM NH4Cl. A control was also run without NH4Cl. One hundred ml cultures in 250 ml shake flasks were inoculated at an initial density of 1×10^5 viable cells/ml (91% viability).

454A12 hybridomas = experiment: Effect of sodium chloride on IgG production by hybridoma 454A12; type: cell-based, murine
Method: In another experiment, the 454A12 hybridomas were grown in shake flasks with commercially available HL-1 medium (Ventrex) supplemented with 8 mM glutamine. Osmolality of the standard (control) HL-1 medium was 300 mOsmol/kg. In the test sample, the osmolality was increased to 400 mOsmol/kg using sodium chloride. The result of solute stress in the test sample was evidenced by a 50% decrease in maximum cell density. In the stressed condition, the specific IgG production rate per cell increased throughout the culture period The increase in specific productivity was greatest during the post exponential phase period of the culture when specific productivity was more than 60% higher under the stressed condition (FIG. 3).

In the case of `CC(O)C(=O)[O-].[Na+]` (stereo not shown) [Na Lactate, sodium lactate], the “Total Cell Density” value (D-234; 20 mM initial lactate, Day 2, 0 mM 4.7) was 5.6 1 × 10^5/ml, the “% Viability” value (D-234; 20 mM initial lactate, Day 2, 0 mM 95) was 96% and the IgM (D-234; 20 mM initial lactate, Day 4, 0 mM 10) was 20 µg/mL. For the same compound, the “Total Cell Density” value (D-234; 20 mM initial lactate, Day 4, 0 mM 21.0) was 15.0 1 × 10^5/ml, the “% Viability” value (D-234; 20 mM initial lactate, Day 4, 0 mM 90) was 92% and the IgM (D-234; 20 mM initial lactate, Day 7, 0 mM 24) was 35 µg/mL. The “% Viability” value (D-234; 40 mM initial lactate, Day 2) was 92%, the “Total Cell Density” value (D-234; 40 mM initial lactate, Day 2) was 5.1 1 × 10^5/ml and the “% Viability” value (D-234; 40 mM initial lactate, Day 4) was 89%. The IgM (D-234; 40 mM initial lactate, Day 4) was 22 µg/mL, the “Total Cell Density” value (D-234; 40 mM initial lactate, Day 4) was 12.9 1 × 10^5/ml and the IgM (D-234; 40 mM initial lactate, Day 7) was 54 µg/mL. The “% Viability” value (D-234; 60 mM initial lactate, Day 2) was 93%, the “Total Cell Density” value (D-234; 60 mM initial lactate, Day 2) was 2.2 1 × 10^5/ml and the “% Viability” value (D-234; 60 mM initial lactate, Day 4) was 87%. For the same compound, the IgM (D-234; 60 mM initial lactate, Day 4) was 19 µg/mL, the “Total Cell Density” value (D-234; 60 mM initial lactate, Day 4) was 4.1 1 × 10^5/ml and the IgM (D-234; 60 mM initial lactate, Day 7, control 24) was 61 µg/mL. For the same compound, the “cell density as % of the control” value (D-234; 80 mM added lactate) was 12%, the “% Viability” value (D-234; 80 mM initial lactate, Day 2) was 81% and the “Total Cell Density” value (D-234; 80 mM initial lactate, Day 2) was 2.1 1 × 10^5/ml. The “% Viability” value (D-234; 80 mM initial lactate, Day 4) was 65%, the IgM (D-234; 80 mM initial lactate, Day 4) was 15 µg/mL and the “Total Cell Density” value (D-234; 80 mM initial lactate, Day 4) was 2.6 1 × 10^5/ml. For the same compound, the IgM (D-234; 80 mM initial lactate, Day 7) was 28 µg/mL, the “% Viability” value (D-234; 100 mM initial lactate, Day 2) was 72% and the “Total Cell Density” value (D-234; 100 mM initial lactate, Day 2) was 2.2 1 × 10^5/ml. For the same compound, the “% Viability” value (D-234; 100 mM initial lactate, Day 4) was 50%, the IgM (D-234; 100 mM initial lactate, Day 4) was 11 µg/mL and the “Total Cell Density” value (D-234; 100 mM initial lactate, Day 4) was 2.0 1 × 10^5/ml. For the same compound, the IgM (D-234; 100 mM initial lactate, Day 7) was 14 µg/mL, the “increase in specific (per cell) productivity” value (D-234; at 60 mM added lactate) was “up to 14 fold” and the effect on growth (D-234; levels of added lactate above 40 mM, screen 0–100 mM) was “greatly inhibited”.
`Cl.N` [NH4Cl, ammonium chloride] was tested, and the “increase in the production of IgM” value (hybridoma D-234) was 2 fold and the “maximum total cell density” value (hybridoma D-234; control 2.3×10^6/ml) was 1.1e+06 mL⁻¹.
In the case of `[Cl-].[Na+]` [sodium chloride], the “decrease in maximum cell density” value (454A12 hybridomas; 400 mOsmol/kg using sodium chloride versus 300 mOsmol/kg control) was 50% and the “increase in specific IgG productivity” value (454A12 hybridomas; 400 mOsmol/kg using sodium chloride, post exponential phase period) was “more than 60%”.
